Where two headings read alike, the source gives them in different places.
Experiments:
[1] = rcm bond, 15-membered ring, Hoveyda-Grubbs II
HCV GT1a(H77) replicon = experiment: HCV replicon luciferase reporter assay, genotype 1a; format: cell-based, HCV genotype 1a; conditions: Hepatitis C virus, 72 h, HUH-7 cells, Renilla luciferase, 3 days incubation
Summary of the method: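 Huh-7 cells stably carried a GT1a(H77) Renilla luciferase replicon with NS3 P1496L and NS5A S2204I adaptive mutations. Luminescence was read after 2 h with 7.5 μM EnduRen, and EC50 came from a four-parameter logistic fit; CC50 came from multiplexed Cell Titer-Blue (8 h).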

HCV GT1b(Con1) replicon = experiment: HCV replicon luciferase reporter assay, genotype 1b; format: cell-based, HCV genotype 1b; conditions: Hepatitis C virus, 72 h, HUH-7 cells, Renilla luciferase, 3 days incubation
Summary of the method: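 HUH-7 cells stably carrying a Con1 GT1b replicon with Renilla luciferase and Ser1179Ile adaptive mutation; 3.0×10^3 cells/well, DMEM 4% FCS, 0.5% DMSO, twenty-point 3-fold titration, 3 days 37 °C. Luminescence 2 h after 7.5 μM EnduRen; EC50 by four-parameter logistic fit. CC50 from multiplexed Cell Titer-Blue fluorescence (8 h).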

SMILES	EC50 (HCV GT1a(H77) replicon; read-out: LE_1a (EC50, range))	EC50 (HCV GT1b(Con1) replicon; read-out: LE_1b (EC50, range))	other results
CC1CC/C=C\[C@@H]2C[C@@]2(C(=O)NS(=O)(=O)C2(C)CC2)NC(=O)[C@@H]2C[C@@H](O)CN2C(=O)[C@@H](NC(=O)OC(C)(C)C)[C@H](C)C1 (stereo partly shown)	–	–	ring closure, isolated yield ([1]; from C=CCCC(C)C[C@@H](C)[C@H](NC(=O)OC(C)(C)C)C(=O)N1C[C@H](O)C[C@H]1C(=O)N[C@]1(C(=O)NS(=O)(=O)C2(C)CC2)C[C@H]1C=C, 1,2-dichloroethane, 8.8 mM, 80.0 °C, 2.0 h): 70%
CC[C@@H]1CC(C)CC/C=C\[C@@H]2C[C@@]2(C(=O)NS(=O)(=O)C2CC2)NC(=O)[C@@H]2C[C@@H](O)CN2C(=O)[C@H]1NC(=O)OC(C)(C)C (stereo partly shown)	–	–	ring closure, isolated yield ([1]; from C=CCCC(C)C[C@@H](CC)[C@H](NC(=O)OC(C)(C)C)C(=O)N1C[C@@H](O)CC1C(=O)N[C@]1(C(=O)NS(=O)(=O)C2CC2)C[C@H]1C=C, dichloroethane, 26.6 mM, 95.0 °C, 16.0 h): 47%
CC(C)Oc1ccc(-c2cc(O[C@@H]3C[C@H]4C(=O)N[C@]5(C(=O)NS(=O)(=O)C6(C)CC6)C[C@H]5/C=C\CC[C@@H](C)C[C@@H](C)[C@H](NC(=O)OC(C)(C)C(F)(F)F)C(=O)N4C3)cc(-c3cncs3)n2)cc1 [Compound 1003, 1,1,1-trifluoro-2-methylpropan-2-yl ((2R,6S,7R,9R,13aS,14aR,16aS,Z)-2-((2-(4-isopropoxyphenyl)-6-(thiazol-5-yl)pyridin-4-yl)oxy)-7,9-dimethyl-14a-(((1-methylcyclopropyl)sulfonyl)carbamoyl)-5,16-dioxo-1,2,3,5,6,7,8,9,10,11,13a,14,14a,15,16,16a-hexadecahydrocyclopropa[e]pyrrolo[1,2-a][1,4]diazacyclopentadecin-6-yl)carbamate]	1.01 to 5 nM	1.01 to 5 nM	–
C[C@@H]1CC/C=C\[C@@H]2C[C@@]2(C(=O)NS(=O)(=O)C2(C)CC2)NC(=O)[C@@H]2C[C@@H](Oc3ccc(-c4nccs4)cn3)CN2C(=O)[C@@H](NC(=O)OC(C)(C)C(F)(F)F)[C@H](C)C1 [Compound 1064, 1,1,1-trifluoro-2-methylpropan-2-yl ((2R,6S,7R,9R,13aS,14aR,16aS,Z)-7,9-dimethyl-14a-(((1-methylcyclopropyl)sulfonyl)carbamoyl)-5,16-dioxo-2-((5-(thiazol-2-yl)pyridin-2-yl)oxy)-1,2,3,5,6,7,8,9,10,11,13a,14,14a,15,16,16a-hexadecahydrocyclopropa[e]pyrrolo[1,2-a][1,4]diazacyclopentadecin-6-yl)carbamate]	1.01 to 5 nM	0.1 to 0.5 nM	–
CC[C@@H]1O[C@H](C)CC/C=C\[C@@H]2C[C@@]2(C(=O)NS(=O)(=O)C2(C)CC2)NC(=O)[C@@H]2C[C@@H](Oc3cc(-c4ccc(C(F)(F)F)cc4)nc(-c4nccs4)c3)CN2C(=O)[C@H]1NC(=O)OC(C)(C)C(F)(F)F [Compound 1039, 1,1,1-trifluoro-2-methylpropan-2-yl ((2R,6S,7S,9R,13aS,14aR,16aS,Z)-7-ethyl-9-methyl-14a-(((1-methylcyclopropyl)sulfonyl)carbamoyl)-5,16-dioxo-2-((2-(thiazol-2-yl)-6-(4-(trifluoromethyl)phenyl)pyridin-4-yl)oxy)-2,3,5,6,7,9,10,11,13a,14,14a,15,16,16a-tetradecahydro-1H-cyclopropa[i]pyrrolo[1,2-e][1,5,8]oxadiazacyclopentadecin-6-yl)carbamate]	1.01 to 5 nM	1.01 to 5 nM	–
CC(C)Oc1ccc(-c2cc(O[C@@H]3C[C@H]4C(=O)N[C@]5(C(=O)NS(=O)(=O)C6(C)CC6)C[C@H]5/C=C\CC[C@@H](C)C[C@@H](C)[C@H](NC(=O)OC5(C(F)(F)F)CCCOC5)C(=O)N4C3)cc(-c3cncs3)n2)cc1 (stereo partly drawn) [Compound 1017, 3-(trifluoromethyl)tetrahydro-2H-pyran-3-yl ((2R,6S,7R,9R,13aS,14aR,16aS,Z)-2-((2-(4-isopropoxyphenyl)-6-(thiazol-5-yl)pyridin-4-yl)oxy)-7,9-dimethyl-14a-(((1-methylcyclopropyl)sulfonyl)carbamoyl)-5,16-dioxo-1,2,3,5,6,7,8,9,10,11,13a,14,14a,15,16,16a-hexadecahydrocyclopropa[e]pyrrolo[1,2-a][1,4]diazacyclopentadecin-6-yl)carbamate]	0.51 to 1 nM	0.51 to 1 nM	EC50 (HCV GT1a(H77) replicon; read-out: LE_1a (EC50)): 0.95 nM; EC50 (HCV GT1b(Con1) replicon; read-out: LE_1b (EC50)): 0.82 nM
CC(C)Oc1ccc(-c2cc(O[C@@H]3C[C@H]4C(=O)N[C@]5(C(=O)NS(=O)(=O)C6(C)CC6)C[C@H]5/C=C\CC[C@H](C)C[C@@H](C)[C@H](NC(=O)OC(C)(C)C(F)(F)F)C(=O)N4C3)cc(-c3cccnc3)n2)cc1 [Compound 1006, 1,1,1-trifluoro-2-methylpropan-2-yl ((2R,6S,7R,9S,13aS,14aR,16aS,Z)-2-((6-(4-isopropoxyphenyl)-[2,3′-bipyridin]-4-yl)oxy)-7,9-dimethyl-14a-(((1-methylcyclopropyl)sulfonyl)carbamoyl)-5,16-dioxo-1,2,3,5,6,7,8,9,10,11,13a,14,14a,15,16,16a-hexadecahydrocyclopropa[e]pyrrolo[1,2-a][1,4]diazacyclopentadecin-6-yl)carbamate]	5.01 to 35 nM	5.01 to 35 nM	–
C[C@@H]1CC/C=C\[C@@H]2C[C@@]2(C(=O)NS(=O)(=O)C2CC2)NC(=O)[C@@H]2C[C@@H](Oc3cc(Cl)ccn3)CN2C(=O)[C@@H](NC(=O)OC(C)(C)C(F)(F)F)[C@H](C)C1 [Compound 1026, 1,1,1-trifluoro-2-methylpropan-2-yl ((2R,6S,7R,9R,13aS,14aR,16aS,Z)-2-((4-chloropyridin-2-yl)oxy)-14a-((cyclopropylsulfonyl)carbamoyl)-7,9-dimethyl-5,16-dioxo-1,2,3,5,6,7,8,9,10,11,13a,14,14a,15,16,16a-hexadecahydrocyclopropa[e]pyrrolo[1,2-a][1,4]diazacyclopentadecin-6-yl)carbamate]	5.01 to 35 nM	5.01 to 35 nM	–
CC(C)Oc1ccc(-c2cc(O[C@@H]3C[C@H]4C(=O)N[C@]5(C(=O)NS(=O)(=O)C6(C)CC6)C[C@H]5/C=C\CC[C@H](C)C[C@@H](C)[C@H](NC(=O)OC(C)(C)C(F)(F)F)C(=O)N4C3)cc(-c3ccncc3)n2)cc1 [Compound 1010, 1,1,1-trifluoro-2-methylpropan-2-yl ((2R,6S,7R,9S,13aS,14aR,16aS,Z)-2-((6-(4-isopropoxyphenyl)-[2,4′-bipyridin]-4-yl)oxy)-7,9-dimethyl-14a-(((1-methylcyclopropyl)sulfonyl)carbamoyl)-5,16-dioxo-1,2,3,5,6,7,8,9,10,11,13a,14,14a,15,16,16a-hexadecahydrocyclopropa[e]pyrrolo[1,2-a][1,4]diazacyclopentadecin-6-yl)carbamate]	5.01 to 35 nM	5.01 to 35 nM	–
CC(C)Oc1ccc(-c2cc(O[C@@H]3C[C@H]4C(=O)N[C@]5(C(=O)NS(=O)(=O)C6(C)CC6)C[C@H]5/C=C\CC[C@@H](C)C[C@@H](C)[C@H](NC(=O)OC5(C(F)(F)F)CCCOC5)C(=O)N4C3)cc(-c3ccccn3)n2)cc1 (stereo partly drawn) [Compound 1051, 3-(trifluoromethyl)tetrahydro-2H-pyran-3-yl ((2R,6S,7R,9R,13aS,14aR,16aS,Z)-2-((6-(4-isopropoxyphenyl)-[2,2′-bipyridin]-4-yl)oxy)-7,9-dimethyl-14a-(((1-methylcyclopropyl)sulfonyl)carbamoyl)-5,16-dioxo-1,2,3,5,6,7,8,9,10,11,13a,14,14a,15,16,16a-hexadecahydrocyclopropa[e]pyrrolo[1,2-a][1,4]diazacyclopentadecin-6-yl)carbamate]	1.01 to 5 nM	0.1 to 0.5 nM	–
CC(C)Oc1ccc(-c2cc(O[C@@H]3C[C@H]4C(=O)N[C@]5(C(=O)NS(=O)(=O)C6(C)CC6)C[C@H]5/C=C\CC[C@H](C)C[C@@H](C)[C@H](NC(=O)OC5(C(F)(F)F)CCCOC5)C(=O)N4C3)cc(-c3cncs3)n2)cc1 (stereo partly drawn) [Compound 1018, 3-(trifluoromethyl)tetrahydro-2H-pyran-3-yl ((2R,6S,7R,9S,13aS,14aR,16aS,Z)-2-((2-(4-isopropoxyphenyl)-6-(thiazol-5-yl)pyridin-4-yl)oxy)-7,9-dimethyl-14a-(((1-methylcyclopropyl)sulfonyl)carbamoyl)-5,16-dioxo-1,2,3,5,6,7,8,9,10,11,13a,14,14a,15,16,16a-hexadecahydrocyclopropa[e]pyrrolo[1,2-a][1,4]diazacyclopentadecin-6-yl)carbamate]	5.01 to 35 nM	1.01 to 5 nM	–

— patent US9334279B2, “Hepatitis C virus inhibitors” (BRISTOL-MYERS SQUIBB COMPANY, priority 2012, dated 2016)
